Reference: US20200171165A1, “ENHANCED TARGETED DELIVERY OF THERAPEUTIC AGENTS” (Proteogenomics Research Institute for Systems Medicine, priority 2018, published 2020)

Tests used:
[1] = system: HER2/neu spontaneous mammary tumors; assay: HER2/neu transgenic spontaneous mammary tumor model: survival and toxicity; format: in vivo, mouse; conditions: single IV dose 5 mg/kg
Excerpt: We also performed a pilot efficacy study of hAnnA1-CMD-Pt(II) in a genetically engineered mouse HER2/neu model that develops spontaneous mammary tumors (GuyWebster et al., 1992; Reilly et al., 2000).

mammary tumors (N202) = assay: IVM ectopic-orthotopic (EO) mammary tumor model, spheroids in dorsal skin window chambers: tumor growth
Experimental: We used the classic IVM tumor model with modifications (Asaishi et al., 1981; Endrich et al., 1980; Vajkoczy et al., 2000). The mice, usually athymic nude mice (25-30 g body weight), were anesthetized (7.3 mg ketamine hydrochloride and 2.3 mg xylazine per 100 g body weight, intraperitoneal injection) and placed on a heating pad. A titanium frame was placed onto the dorsal skinfold of mice to sandwich the extended double layer of skin. A 15 mm diameter full-thickness circular layer of skin was then excised. The superficial fascia on top of the remaining skin was carefully removed to expose the underlying muscle and subcutaneous tissue which was then covered with another titanium frame with a glass coverslip to form the window chamber. After a recovery period of 1-2 days, tumor spheroids were implanted.
Tumor spheroids were formed by plating 50,000 cells onto 1% agar-coated 96-well non-tissue culture treated flat bottom dishes (20 μl cells in 100 μl medium) and centrifuging 4 times at 2000 rpm for 15 min, rotating the dish after every centrifugation. The cells were incubated an additional 3-7 days (depending on cell type) at 37° C. in 5% CO2 in air to form tight spheroids. BT-474 cells required 500,000 cells in the presence of Matrigel (BD Bioscience, San Diego) (1:1 cell volume dilution) to form spheroids in culture. […]
Tumors were imaged using intravital fluorescence microscopy, as described (Borgstrom et al., 2013; Oh et al., 2007; Oh et al., 2014). Tumor growth was analyzed off-line from the recorded, digital, grayscale 0-to-256 images using Image-Pro Plus (Media Cybernetics, Bethesda, Md.). Tumor growth was determined in 2 ways, by measuring the area with fluorescence signal from the GFP or CFP expressing tumor cells or by quantifying the cumulative fluorescence signal for the tumor over time. Tumor area is measured by counting the number of pixels with a grayscale intensity above 75, thereby making it easier to reliably follow irregularly shaped tumors. The cumulative tumor fluorescence signal was measured by signal summation of all pixels over 75. […]

N.N.[Cl][Pt][Cl] [cisplatin]
Mean extension in survival vs untreated controls [1]: 30 days

CC(=O)O[C@@]12CO[C@@H]1C[C@H](O)[C@@]1(C)C(=O)[C@H](O)C3=C(C)[C@@H](OC(=O)[C@H](O)[C@@H](NC(=O)OC(C)(C)C)c4ccccc4)C[C@@](O)([C@@H](OC(=O)c4ccccc4)[C@H]21)C3(C)C [docetaxel]
Tumor response (mammary tumors (N202); unconjugated drug 5 mg/kg): produced less benefit

COc1cccc2c1C(=O)c1c(O)c3c(c(O)c1C2=O)C[C@@](O)(C(=O)CO)C[C@@H]3O[C@H]1C[C@H](N)[C@H](O)[C@H](C)O1 [free doxorubicin, doxorubicin]
Tumor response (IVM) (mammary tumors (N202); free drug 1 mg/kg): no effect
Tumor response (IVM) (mammary tumors (N202); free drug 5 mg/kg (near MTD)): slowed tumor growth modestly
